Source: US7342010B2, “2-thiaquinolizidines and process for the preparation thereof” (Board of Trustees of Michigan State University, priority 2004, dated 2008)
Like-named read-outs stand apart in the source and are kept apart here.

Legend:
α-glucosidase (yeast) [1] = system: T1, α-glucosidase (yeast); assay: Inhibition of yeast α-glucosidase, hydrolysis of p-nitrophenylglucoside followed spectrophotometrically; assay type: biochemical
T1 construct: other: p-nitrophenylglucoside substrate, 37° C
Experimental: (§1) The inhibitory activity of 3 against a series of enzyme was tested. Enzymes were assayed according to standard procedures (Halvorson, H. O., Methods Enzymol. 8, 55 (1966)) by following the hydrolysis of nitrophenyl glycosides spectrophotometrically or by evaluating the reducing sugar formed in some glucosidase assays. The enzymes used were α-glucosidase (yeast and rice), β-glucosidase (almond), α-galactosidase (green coffee beans), β-galactosidase (E. coli) and α-mannosidase (jack beans).
(§2) Inhibitory potency of 3 was determined by spectrophotometrically measuring the residual hydrolytic activities of the glycosidases against the corresponding nitrophenyl α- or β-D-glucopyranoside. The glycosidases used were α-glucosidase (yeast), α-glucosidase (rice), β-glucosidase (almond), α-galactosidase (green coffee beans), β-galactosidase (E. coli) and α-mannosidase (jack beans). All enzymes were purchased from Sigma. Each assay was performed in a phosphate or an acetate buffer at the optimal pH for each enzyme. Inhibition studies (except rice α-glucosidase) were performed by adding the inhibitor to a final concentration of 0.05 mM to 11 mM to the respective buffer solutions along with enzyme. The solutions were incubated at 37° C. before adding substrates to the solutions. The absorbance of the resulting mixture was determined at 400 nm (for p-nitrophenol).

α-glucosidase (rice) [2] = molecular target: T2, α-glucosidase (rice) (Oryza sativa subsp. japonica, UniProt Q653V7); assay: Inhibition of rice α-glucosidase, maltose substrate, glucose oxidase/peroxidase coupled assay; assay type: biochemical
T2 construct: purchased Sigma
Experimental: as §1
as §2, with “Inhibition studies (except rice α-glucosidase) were performed by adding the inhibitor to a final concentration of 0.05 mM to 11 mM to the respective buffer solutions along with enzyme. The solutions were incubated at 37° C. before adding substrates to the solutions.” left out
For rice α-glucosidase inhibition, maltose was used as the substrate, and the assay was based on the glucose oxidase/peroxidase enzyme procedure. […] The absorbance of the solution was determined at 500 nm for oxidized o-dianisidine. […] The absorbance of the solution was determined at 500 nm.

β-glucosidase (almond) [3] = assay: Inhibition of almond β-glucosidase, nitrophenyl glycoside hydrolysis; assay type: biochemical
Experimental: as §1, §2

[4] = molecular target: T3, α-galactosidase (green coffee beans) (Coffea arabica, UniProt Q42656); assay: Inhibition of green coffee bean α-galactosidase, nitrophenyl glycoside hydrolysis; assay type: biochemical
T3 construct: purchased Sigma
Experimental: as §1, §2

[5] = molecular target: T4, β-galactosidase (E. coli) (Escherichia coli, UniProt P00722); assay: Inhibition of E. coli β-galactosidase, nitrophenyl glycoside hydrolysis; assay type: biochemical
T4 construct: purchased Sigma
Experimental: as §1, §2

[6] = molecular target: T5, α-mannosidase (jack beans) (Canavalia ensiformis, UniProt C0HJB3); assay: Inhibition of jack bean α-mannosidase, nitrophenyl glycoside hydrolysis; assay type: biochemical
T5 construct: purchased Sigma
T5 sequence (C0HJB3 1-562 limits assumed): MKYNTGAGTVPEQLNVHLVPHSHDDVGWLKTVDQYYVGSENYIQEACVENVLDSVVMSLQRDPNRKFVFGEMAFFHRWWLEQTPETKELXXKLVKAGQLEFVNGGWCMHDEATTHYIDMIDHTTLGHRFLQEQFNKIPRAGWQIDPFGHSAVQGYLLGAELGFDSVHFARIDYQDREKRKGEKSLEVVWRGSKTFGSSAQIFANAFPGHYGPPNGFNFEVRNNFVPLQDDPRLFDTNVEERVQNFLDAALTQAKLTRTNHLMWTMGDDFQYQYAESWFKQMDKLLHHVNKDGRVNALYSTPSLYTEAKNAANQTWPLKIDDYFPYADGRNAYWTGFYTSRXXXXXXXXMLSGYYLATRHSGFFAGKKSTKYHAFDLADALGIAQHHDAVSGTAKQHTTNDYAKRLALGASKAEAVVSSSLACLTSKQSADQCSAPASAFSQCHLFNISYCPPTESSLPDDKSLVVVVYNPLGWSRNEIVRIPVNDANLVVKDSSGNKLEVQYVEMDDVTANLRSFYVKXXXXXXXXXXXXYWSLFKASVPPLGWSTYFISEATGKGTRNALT
T5 sequence (C0HJB3 563-981 limits assumed): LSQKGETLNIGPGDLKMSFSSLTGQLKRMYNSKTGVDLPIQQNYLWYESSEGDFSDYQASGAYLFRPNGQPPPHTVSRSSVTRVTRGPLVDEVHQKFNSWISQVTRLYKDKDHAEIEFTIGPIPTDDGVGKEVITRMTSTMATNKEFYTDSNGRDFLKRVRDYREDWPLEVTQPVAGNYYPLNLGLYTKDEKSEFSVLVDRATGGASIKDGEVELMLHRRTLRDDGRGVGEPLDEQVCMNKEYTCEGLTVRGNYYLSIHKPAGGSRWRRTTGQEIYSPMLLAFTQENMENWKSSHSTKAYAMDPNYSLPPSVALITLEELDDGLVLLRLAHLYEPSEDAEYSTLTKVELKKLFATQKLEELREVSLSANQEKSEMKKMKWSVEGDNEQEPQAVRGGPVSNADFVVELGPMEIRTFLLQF
Experimental: as §1, §2

β-glucosidase = details: literature, enzyme source not stated; cited from earlier work
β-glucosidase (almond) [7] = details: cited from earlier work
[8] = molecular target: T3, α-galactosidase (green coffee beans); details: literature values; n.i. = no inhibition observed; cited from earlier work
α-glucosidase (yeast) [9] = details: cited from earlier work; for Ki: literature values, read-out: Inhibition activity Ki, α-glucosidase (yeast)
α-glucosidase (rice) [10] = molecular target: T2, α-glucosidase (rice); details: cited from earlier work; for Ki: literature values, read-out: Inhibition activity Ki, α-glucosidase (rice)
[11] = molecular target: T5, α-mannosidase (jack beans); details: cited from earlier work
[12] = literature values, n.i. = no inhibition observed

T3 sequence (Q42656 16-378): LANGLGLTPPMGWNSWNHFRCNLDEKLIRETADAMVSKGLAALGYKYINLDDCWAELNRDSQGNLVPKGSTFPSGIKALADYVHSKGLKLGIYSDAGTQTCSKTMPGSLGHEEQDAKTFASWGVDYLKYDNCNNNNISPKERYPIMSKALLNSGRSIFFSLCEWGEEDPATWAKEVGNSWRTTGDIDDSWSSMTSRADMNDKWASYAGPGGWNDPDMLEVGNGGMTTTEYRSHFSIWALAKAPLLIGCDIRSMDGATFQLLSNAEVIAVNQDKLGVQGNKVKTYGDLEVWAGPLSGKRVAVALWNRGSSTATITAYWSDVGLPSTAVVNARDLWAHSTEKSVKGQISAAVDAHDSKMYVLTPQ
T2 sequence (Q653V7 34-885): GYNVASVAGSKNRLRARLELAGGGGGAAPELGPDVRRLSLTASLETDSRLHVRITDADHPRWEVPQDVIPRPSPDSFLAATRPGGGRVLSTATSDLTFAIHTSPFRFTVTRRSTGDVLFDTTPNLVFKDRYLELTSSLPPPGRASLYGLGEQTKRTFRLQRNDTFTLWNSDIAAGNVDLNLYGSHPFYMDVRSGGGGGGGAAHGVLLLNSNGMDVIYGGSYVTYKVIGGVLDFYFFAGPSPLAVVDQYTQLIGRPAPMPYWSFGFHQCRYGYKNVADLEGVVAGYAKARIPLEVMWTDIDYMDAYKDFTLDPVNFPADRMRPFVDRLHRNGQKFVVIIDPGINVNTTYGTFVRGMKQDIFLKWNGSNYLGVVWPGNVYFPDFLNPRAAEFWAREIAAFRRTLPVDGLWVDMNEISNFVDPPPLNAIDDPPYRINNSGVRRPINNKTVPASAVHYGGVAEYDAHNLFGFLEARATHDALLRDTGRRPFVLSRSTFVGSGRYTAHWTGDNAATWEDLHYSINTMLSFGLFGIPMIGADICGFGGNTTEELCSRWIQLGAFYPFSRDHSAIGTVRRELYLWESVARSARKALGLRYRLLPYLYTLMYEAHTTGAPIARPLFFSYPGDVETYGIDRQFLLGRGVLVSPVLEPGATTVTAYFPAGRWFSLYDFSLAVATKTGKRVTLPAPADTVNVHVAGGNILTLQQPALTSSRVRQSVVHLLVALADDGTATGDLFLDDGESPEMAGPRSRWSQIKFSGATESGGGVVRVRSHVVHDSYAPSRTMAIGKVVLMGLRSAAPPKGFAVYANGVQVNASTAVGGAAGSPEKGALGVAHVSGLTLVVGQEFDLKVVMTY
T4 sequence (P00722 2-1024): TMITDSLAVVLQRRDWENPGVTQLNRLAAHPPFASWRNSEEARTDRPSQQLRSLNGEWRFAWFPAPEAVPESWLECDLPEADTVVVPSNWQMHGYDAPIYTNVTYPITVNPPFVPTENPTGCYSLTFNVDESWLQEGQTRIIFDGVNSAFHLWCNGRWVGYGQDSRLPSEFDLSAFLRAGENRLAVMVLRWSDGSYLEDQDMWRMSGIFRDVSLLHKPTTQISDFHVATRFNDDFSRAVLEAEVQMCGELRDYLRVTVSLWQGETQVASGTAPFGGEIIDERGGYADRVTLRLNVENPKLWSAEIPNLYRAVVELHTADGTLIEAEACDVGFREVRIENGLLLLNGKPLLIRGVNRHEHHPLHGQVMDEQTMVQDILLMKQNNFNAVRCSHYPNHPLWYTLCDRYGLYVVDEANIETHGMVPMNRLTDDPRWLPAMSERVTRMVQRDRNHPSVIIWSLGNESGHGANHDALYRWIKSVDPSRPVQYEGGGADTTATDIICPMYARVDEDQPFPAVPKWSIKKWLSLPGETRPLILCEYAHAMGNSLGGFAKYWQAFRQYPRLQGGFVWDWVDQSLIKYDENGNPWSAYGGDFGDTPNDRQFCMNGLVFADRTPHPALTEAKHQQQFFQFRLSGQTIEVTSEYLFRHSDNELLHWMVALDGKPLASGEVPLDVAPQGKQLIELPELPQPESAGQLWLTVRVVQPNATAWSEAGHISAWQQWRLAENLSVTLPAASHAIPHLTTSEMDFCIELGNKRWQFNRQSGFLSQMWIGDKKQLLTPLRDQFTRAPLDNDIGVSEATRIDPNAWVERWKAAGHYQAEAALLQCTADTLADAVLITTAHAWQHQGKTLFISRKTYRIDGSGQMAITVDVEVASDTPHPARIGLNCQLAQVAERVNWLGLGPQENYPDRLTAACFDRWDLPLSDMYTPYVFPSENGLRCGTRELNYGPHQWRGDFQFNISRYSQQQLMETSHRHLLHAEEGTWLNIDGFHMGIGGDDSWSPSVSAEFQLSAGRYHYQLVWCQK

## O[C@H]1[C@H](O)[C@@H](O)CN2CCSC[C@H]12 [Compound 3, 7(S),8(R),9(R),10(S)-Trihydroxy-2-thiaquinolizidine]
α-glucosidase (yeast) [1]; double reciprocal plots, FIG. 6A
  Type of inhibition, yeast α-glucosidase: competitive inhibition
α-glucosidase (yeast) [1]; p-nitrophenylglucoside substrate, 37° C.
  Ki: 330 µM
α-glucosidase (rice) [2]; FIG. 6B
  Type of inhibition, rice α-glucosidase: competitive inhibition
α-glucosidase (rice) [2]; maltose substrate, sodium acetate buffer pH 4.0, 37° C.
  Ki: 900 µM
β-glucosidase (almond) [3]; inhibitor 0.05 mM to 11 mM
  Inhibitory activity towards β-glucosidase (almond), in words: No inhibitory activity
β-glucosidase (almond) [3]; n.i. = no inhibition observed
  Inhibition activity Ki, β-glucosidase (almond): n.i.^b
[4]; inhibitor 0.05 mM to 11 mM
  Inhibitory activity towards α-galactosidase (green coffee beans), in words: No inhibitory activity
[4]; n.i. = no inhibition observed
  Inhibition activity Ki, α-galactosidase (green coffee beans): n.i.^
[5]; inhibitor 0.05 mM to 11 mM
  Inhibitory activity towards β-galactosidase (E-coli), in words: No inhibitory activity
[5]; n.i. = no inhibition observed
  Inhibition activity Ki, β-galactosidase (E. Coli): n.i.^
[6]; inhibitor 0.05 mM to 11 mM
  Inhibitory activity towards α-mannosidase (jack bean), in words: No inhibitory activity
[6]; n.i. = no inhibition observed
  Inhibition activity Ki, α-mannosidase (jack beans): n.i.^

## CC1(C)O[C@H]2[C@H](O1)[C@@H](O)CSC[C@@H]2O [compound 13]
β-glucosidase
  Activity against a β-glucosidase, in words: inactive

## O[C@@H]1[C@@H](O)[C@H](O)N2CCCC[C@H]2[C@H]1O [compound 10]
β-glucosidase (almond) [7]; [12]
  Inhibition activity Ki, β-glucosidase (almond): n.i.
[8]
  Inhibition activity Ki, α-galactosidase (green coffee beans): n.i.

## O[C@H]1[C@H](O)[C@@H](O)CN2CC[C@H](O)[C@H]12 [Compound 1, castanospermine]
α-glucosidase (yeast) [9]
  Ki: > 1500 µM
α-glucosidase (yeast) [9]; literature
  Activity against yeast α-glucosidase, in words: poor activity
α-glucosidase (rice) [10]
  Ki: 0.015 µM
α-glucosidase (rice) [10]; literature
  Activity against rice α-glucosidase, in words: strongly inhibited
β-glucosidase (almond) [7]; [12]
  Ki: 1.5 µM
β-glucosidase (almond) [7]; literature
  Activity against almond β-glucosidase, in words: inhibiting

## NC1=N[C@H](CO)[C@@H](O)[C@H](O)[C@H]1O [compound 12]
α-glucosidase (yeast) [9]
  Ki: ~10 µM
β-glucosidase (almond) [7]; [12]
  Ki: 8 µM
[8]
  Ki: ~10 µM

## OC[C@H]1NC[C@H](O)[C@@H](O)[C@@H]1O [compound 2, deoxynojirimycin]
α-glucosidase (rice) [10]
  Ki: 0.01 µM
β-glucosidase (almond) [7]; [12]
  Ki: […]

## O[C@H]1[C@H](O)[C@H](O)CN2CCC[C@H](O)[C@H]12 [compound 11]
α-glucosidase (yeast) [9]; literature value, read-out: Inhibition activity IC50, α-glucosidase (yeast)
  IC50: > 2000 µM
β-glucosidase (almond) [7]; literature value, read-out: Inhibition activity IC50, β-glucosidase (almond)
  IC50: > 2000 µM
[11]; literature value, read-out: Inhibition activity IC50, α-mannosidase (jack beans)
  IC50: > 2000 µM
[11]; literature
  Inhibition of α-mannosidase, in words: extremely poor inhibition
